Source: PMC4549624 (Scientific Reports, 2015)
Read-outs that look alike come from different tables or passages of the source.

What was measured:
KCNQ1 = conditions: cited from earlier work
KCNE1 (human) = KCNE1 (human) (UniProt P15382)
KCNE1-R32D (human) = KCNE1-R32D (human) (UniProt P15382)

CCS(=O)(=O)N(C)[C@H]1c2cc(C#N)ccc2OC(C)(C)[C@@H]1O (racemic) [chromanol 293B]
effect on KCNQ1 (KCNQ1): inhibit the channel

COc1ccc(-c2csc(NC(=O)[C@H]3CCCCN3S(=O)(=O)c3ccc(C)cc3)n2)cc1 [ML277]
effect on KCNQ1 (KCNQ1; binds to side pocket in KCNQ1, especially KCNE1-free side pocket, in words): enhance the amplitude of the KCNQ1 current

O=C(Nc1cc(C(F)(F)F)ccc1O)Nc1cc(C(F)(F)F)ccc1O [NS1643]
effect on KCNQ1 (KCNQ1; binds to KCNQ1, in words): enhance the channel conductance

SSD609 (peptide)
current of wild-type KCNQ1/KCNE1 left under SSD609 in transfected CHO cells, whole-cell patch clamp (reference of the R32D mutant) (KCNE1 (human)): 30%
current of KCNQ1/KCNE1-R32D left under SSD609 in transfected CHO cells, whole-cell patch clamp (KCNE1-R32D (human)): < 10%
